Test results reported in US6465527B1, “Iodinated hydrocarbon pesticide” (priority 1999, dated 2002).

Assays:
[1] = test system: German cockroach, Blattella germanica (L.); test: Fumigant toxicity in sealed glass jar, German cockroach; assay type: in vivo; conditions: 30-60 adult males
[2] = test system: American cockroach, Periplaneta americana (L.); test: Fumigant toxicity in sealed glass jar, American cockroach; assay type: in vivo; conditions: 8-36 adult males
[3] = test system: Cowpea weevil, Callosobruchus maculatus (F.); test: Fumigant toxicity, Cowpea weevil; assay type: in vivo; set-up: concentration or dose not given beside the values; conditions: 30 adults
Procedure: Shown in Table 2 is the toxicity of both monoiodinated and diiodinated hydrocarbons to the German and American cockroach and the Cowpea weevil after 24 hours of exposure.

Heterodera glycines = test: Greenhouse nematicide test, diiodinated C2-C8 hydrocarbons in infested field soil (Experiments 1 and 2); assay type: in vivo; conditions: rates ≧5.0 mg
Procedure: (§1) Additionally, the nematicidal properties of iodinated hydrocarbons were investigated in greenhouse experiments with field soil infested with Meloidogyne arenaria and Heterodera Glycines. Chemicals were added directly to infested solid at rates <100 mg/Kg soil. Treated soil was kept moist (approximately 60 percent field capacity) and uncovered for 7-10 days when samples were collected, and the pots were planted with ‘Brim’ soybean, Glycine max. […] 1,2-diiodoethane (C2), 1,3-diiodopropane (C3), 1,4-diiodobutane (C4), 1,5-diiodopentane (C5), 1,6-diiodohexane (C6), and […] were applied to soil rates of 2.5, 5.0, 7.5, and 10 mg/Kg soil. All rates of C2 and C8 were ineffective in reducing M. arenaria juvenile (J2) populations in preplant samples. This was also true for C2 and J2 populations of H. glycines; however, […] rates ≧5.0 mg suppressed J2 populations of H. glycines. […] H. glycines J2 numbers in final soil samples were generally inversely related to rates for C3-C8. […] Applications of C3-C6 to soil increased shoot weights in a manner directly related to dosages but only in a curvilinear pattern.
(§2) In this experiment, the nematicidal properties of various diiodinated hydrocarbons were compared. The nematicidal properties of diiodinated C2-C8 normal hydrocarbons was assessed in a greenhouse experiment with field soil infested with Meloidogyne arenaria [Ma] and Heterodera glycines [Hg]. 1,2-diiodoethane [C2], 1,3-diiodopropane [C3], 1,4-diiodobutane [C4], 1.5-diiodopentane [C5], 1,6-diiodohexane [C6] and 1,8-diiodooctane [C8] were applied to soil at rates of 2.5, 5.0, 7.5, and 10.0 mgs/kg soil. The potted soil was kept moist in a greenhouse for 10 days when preplant samples were collected for analysis, and the pots were planted with ‘Brim’ soybean [Glycine max]. After 7 weeks of growth, the plants were removed and final soil samples taken. Data was collected on weights of fresh roots and shoots, root galling by Ma, and numbers of nematodes in soil and roots. All rates of C2 and C8 were ineffective in reducing Ma juvenile [J2] populations in the preplant samples. This was also true for C2 and J2 populations of Hg; however, C8 rates ≧5.0 mg suppressed J2 populations of Hg. […] Hg J2 numbers in final soil samples were generally inversely related to rates for C3-C8. This pattern of suppression in J2 numbers was also applicable to Ma in the final soil samples but only for C3-C6. […] Applications of C3-C6 to soil increased shoot weights in a manner directly related to dosages but non-linear in pattern.

Meloidogyne arenaria = test: as above; assay type: in vivo; conditions: rates ≧5.0 mg
Procedure: as §1, §2

[4] = test system: reniform nematode [Rotylenchulus reniformis]; test: Greenhouse nematicide test in cotton field soil, covered and uncovered pots (Experiment 6, FIGS. 1-4); assay type: in vivo
From the text: FIGS. 2 and 3 illustrate the effectiveness of the diiodoethane and diiodopropane in eliminating the nematode (Rotylenchulus reniformis) from a soil sample. The “x” axis on the top row illustrates the quantity of iodinated hydrocarbon in milligrams per kilogram of soil. The next two rows below the “x” axis indicate the number of nematodes per 100 milliliters of soil, which is also indicated on the “y” axis. In FIG. 2, 1,2-diiodoethane was applied to the soil both in a covered state and an uncovered state. […] This is believed to be so because of the volatility of 1,2 diiodoethane, wherein the cover slows down the rate at which the compound evaporates into the atmosphere.
In this experiment, the pesticidal and herbicidal properties of volatile, low molecular weight, iodinated hydrocarbons were investigated. The relative nematicidal efficacy of iodomethane [C1], 1,2-diiodoethane [C2], 1,3-diiodopropane [C3] and 1,4-diiodobutane [C4] was studied in greenhouse experiments with soil from a cotton field infested with the reniform nematode [Rotylenchulus reniformis]. The chemicals were obtained from Aldrich, Milwaukee, U.S.A. Emulsifiable concentrates of the compounds were prepared by dilution in acetone containing an emulsogen.
(§3) For each chemical, an aqueous emulsion with 0.2% [w/w] of the compound was prepared and was applied to soil at rates of 2, 4, 6, 8, 10, and 12 mgs a.i./Kg soil. The treated soil was mixed and transferred to 1L capacity 10-cm diameter cylindrical pots. Pots with untreated soil [control] and with treated soil were placed on a greenhouse bench in a randomized complete block design. Each treatment was represented by 14 replications [pots], one half of which were left uncovered, and the other 7 were covered with polyethylene plastic bags [approx. 1 mil thickness] retained with a rubber around the pots. Soil samples for nematological analysis [salad bowl incubation technique] were collected 7-10 days after application of the materials. […] In covered pots, applications of the material were particularly effective resulting in 100% kill with the 10 and 12 mg rates. All dosages of C3 and C4 eliminated the nematode in covered pots. […] In a greenhouse experiment of similar design to the nematicide experiments, the C3 and C4 emulsions were applied at rates of 2-20 mgs a.i./Kg soil to a soil infested with crabgrass [Digitaria sanguinalis], purple nutsedge [Cyperus rotundus], Jimson weed [Datura stramonium] and a variety of other weed species. All pots were covered, and the number of weeds were counted 7, 14 and 30 days after application of the chemicals.

[5] = test system: crabgrass [Digitaria sanguinalis], purple nutsedge [Cyperus rotundus], Jimson weed [Datura stramonium] and a variety of other weed species; test: Greenhouse herbicide test in weed-infested potted soil (Experiment 6, FIG. 6); assay type: in vivo
Procedure: (§4) Illustrated in FIGS. 6 and 7 are the herbicidal properties of the present invention. In FIG. 6, 1,3-diiodopropane and 1,4-diiodobutane were added to a soil sample contained in a pot, wherein the number of weeds were counted at the end of a one week period. The top row of the “x” axis plots the amount in milligrams of iodinated hydrocarbon added per kilogram of soil. The two rows below the top row depict the number of weeds found after a week, which is also plotted on the “y” axis. […] It is inferred that greater dosages would eliminate an even greater number of weeds. FIG. 7 depicts similar results except that the weed controlled was only one variety: crabgrass. […] It is also inferred that dosages larger than 20 mg of iodinated hydrocarbons would further eliminate an even greater number of crabgrass plants.
as §3

crabgrass = test: Herbicide test in potted soil containing crabgrass (FIG. 7); assay type: in vivo, Digitaria sanguinalis; conditions: up to 20 mg per kg of soil
Procedure: as §4
For each chemical, an aqueous emulsion with 0.2% [w/w] of the compound was prepared and was applied to soil at rates of 2, 4, 6, 8, 10, and 12 mgs a.i./Kg soil. The treated soil was mixed and transferred to 1L capacity 10-cm diameter cylindrical pots. Pots with untreated soil [control] and with treated soil were placed on a greenhouse bench in a randomized complete block design. […] All pots were covered, and the number of weeds were counted 7, 14 and 30 days after application of the chemicals.

[6] = up to 20 mg per kg of soil, one week

## ICCCI [1,3-diiodopropane]
[1]; 1 h exposure
  % Mortality after 1 h exposure, German cockroach: 0%
[1]; 24 h exposure
  % Mortality after 24 h exposure, German cockroach: 100%
[2]; 1 h exposure
  % Mortality after 1 h exposure, American cockroach: 0%
[2]; 24 h exposure
  % Mortality after 24 h exposure, American cockroach: 100%
[3]
  % Mortality after 24 h exposure, Cowpea weevil: 97%
Heterodera glycines
  H. glycines J2 populations in preplant samples: virtually eliminated
Meloidogyne arenaria
  M. arenaria J2 populations in preplant samples: virtually eliminated
[4]; covered and uncovered state
  Elimination of the nematodes from the soil (FIG. 3): able to eliminate the nematodes
[4]; covered pots, all dosages (2-12 mgs a.i./Kg soil)
  Nematode in soil, covered pots: eliminated
[4]; uncovered pots, 3 highest rates
  Mortality of the nematode: 100%
[4]; uncovered pots, rates ≦6 mgs/Kg soil
  Relative effectiveness in uncovered pots: somewhat more effective than C4
[5]; 2-20 mgs a.i./Kg soil, covered pots, weeds counted 7, 14 and 30 days after application
  Weed control, relative effectiveness: significantly more effective in controlling weeds than C4
[5]; [6]
  Controlling weeds, comparison (FIG. 6): better results
  Number of weeds found in the pots as the dosage is increased (FIG. 6): steady decline
crabgrass
  Controlling and eliminating crabgrass, comparison (FIG. 7): better results
